This is an account of results in ChEMBL document CHEMBL1124165, “1-(2,3-Anhydro-beta-D-lyxofuranosyl)cytosine derivatives as potential inhibitors of the human immunodeficiency virus” (J Med Chem, 1988).

In experiment [1] the test system is ATH-8 cell line. The experiment is described as follows: Tested in vitro for concentration with significant protective effect on ATH8 cells exposed to HIV; No significant effect at concentrations 100 uM. Conditions: Homo sapiens. It counts as functional, cell-based.
The species named for experiment [2] is Homo sapiens. In words: Tested in vitro for concentration with significant protective effect on CD4+ cells exposed to HIV. It counts as functional.
In experiment [3] the test system is ATH-8 cell line. The experiment is described as follows: Tested in vitro for concentration with significant protective effect on ATH8 cells exposed to HIV. It counts as functional, cell-based. Conditions: Homo sapiens.

With `COc1ccn([C@@H]2O[C@H](CO)[C@H]3OC23)c(=O)n1` (some centres undefined), the Concentration entry in experiment [1] was “No significant effect at concentrations 100 uM”.
The same measure, in the same setting: the same measure for `Cc1cn([C@@H]2O[C@H](CO)[C@H]3OC23)c(=O)[nH]c1=O` (some centres undefined): “No significant effect at concentrations 100 uM”.
Consider `Nc1ccn([C@@H]2O[C@H](CO)[C@H]3OC23)c(=O)n1` (some centres undefined), for which the Concentration in experiment [2] and in experiment [3] was 5 µM in each case.
For the compound `O=c1nc(NO)ccn1[C@@H]1O[C@H](CO)[C@H]2OC12` (some centres undefined), the Concentration entry in experiment [1] is “No significant effect at concentrations 100 uM”.
As for `O=c1[nH]c(=O)n([C@@H]2O[C@H](CO)[C@H]3OC23)cc1Br` (some centres undefined), the Concentration entry in experiment [1] was “No significant effect at concentrations 100 uM”.
Still for that read-out and setting: the same measure for `[N-]=[N+]=N[C@@H]1C(O)[C@H](n2ccc(=O)[nH]c2=O)O[C@@H]1CO` (some centres undefined): “No significant effect at concentrations 100 uM”.
On the same count and under the same terms, the same measure for `C[C@H]1[C@H](O)[C@H](n2ccc(=O)[nH]c2=O)O[C@@H]1CO`: “No significant effect at concentrations 100 uM”; for `[N-]=[N+]=N[C@@H]1C(O)[C@H](n2ccc(N)nc2=O)O[C@@H]1CO` (some centres undefined): “No significant effect at concentrations 100 uM”.
The same measure, in the same setting: for `CNc1ccn([C@@H]2O[C@H](CO)[C@H]3OC23)c(=O)n1` (some centres undefined) the value was “No significant effect at concentrations 100 uM”.
As for `Cc1cn([C@@H]2O[C@H](CO)C[C@@H]2O)c(=O)[nH]c1=O`, in experiment [1], the Concentration result is “No significant effect at concentrations 100 uM”.
`Cc1cn([C@@H]2O[C@H](CO)[C@H](N=[N+]=[N-])C2O)c(=O)[nH]c1=O` (some centres undefined): the Concentration entry in experiment [1] is “No significant effect at concentrations 100 uM”.
On the same count and under the same terms, the same measure for `O=c1ccn([C@@H]2O[C@H](CO)[C@H]3OC23)c(=O)[nH]1` (some centres undefined): “No significant effect at concentrations 100 uM”; for `Nc1ccn([C@@H]2O[C@H](CO)C[C@@H]2O)c(=O)n1`: “No significant effect at concentrations 100 uM”.
